According to PubChem BioAssay (NCI):
Several values for one entry are separate records, joined by “and”; a condition that tells them apart may be missing. Identical values can stand only once.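 Five concentrations, 48 hours, 96-well plates. GI50: concentration for 50% inhibition of growth. TGI denotes the concentration required for complete inhibition of growth.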

Legend:
Assay in all cases: NCI-60 cell line screen, 48 h
A549 NSCLC = test system: A549 NSCLC
PC-3 prostate = test system: PC-3 prostate
HOP-62 NSCLC = test system: HOP-62 NSCLC
SNB-19 CNS = test system: SNB-19 CNS
M14 melanoma = test system: M14 melanoma
RXF 393 renal = test system: RXF 393 renal
NCI-H23 lung = test system: NCI-H23 lung
A498 renal = test system: A498 renal
U251 CNS = test system: U251 CNS
KM12 colon = test system: KM12 colon

| SMILES | GI50 (A549 NSCLC) | TGI (A549 NSCLC) | GI50 (PC-3 prostate) | TGI (PC-3 prostate) | GI50 (HOP-62 NSCLC) | TGI (HOP-62 NSCLC) | GI50 (SNB-19 CNS) | TGI (SNB-19 CNS) | GI50 (M14 melanoma) | TGI (M14 melanoma) | GI50 (RXF 393 renal) | TGI (RXF 393 renal) | GI50 (NCI-H23 lung) | TGI (NCI-H23 lung) | GI50 (A498 renal) | TGI (A498 renal) | GI50 (U251 CNS) | TGI (U251 CNS) | GI50 (KM12 colon) | TGI (KM12 colon) |
| --- | --- | --- | --- | --- | --- | --- | --- | --- | --- | --- | --- | --- | --- | --- | --- | --- | --- | --- | --- | --- |
| Cn1ccnc1C(=O)/C=C/c1ccc(C(=O)Nc2ccc(Cl)cc2)cc1 | 951 nM | > 33.3 µM | 0.951 µM | 19 µM | 1040 nM | > 33.3 µM | 987 nM | > 33.3 µM | 968 nM | 4.96 µM | 836 nM | 2.66 µM | 1250 nM | 7.62 µM | 661 nM | > 33.3 µM | – | – | – | – |
| CCC[CH2][Sn]1([CH2]CCC)[O]C(=O)c2cc(I)cc(I)c2[O]1 | 2720 nM | 8.41 µM | – | – | 2130 nM | 4.12 µM | 1270 nM | 2.55 µM | 1660 nM | 3.17 µM | 559 nM | 1.97 µM | 1180 nM | 2.9 µM | 1370 nM | 2.67 µM | 882 nM | 2.1 µM | 1610 nM | 2.99 µM |
| Cc1cc2c(cc1Cl)SC1=CC(=O)N(c3ccccc3)C1=NS2(=O)=O | > 100000 nM | > 100 µM | 37.4 µM | > 100 µM | 46000 nM | > 100 µM | 54500 nM | > 100 µM | 21000 nM | 42.8 µM | > 100000 nM | > 100 µM | > 100000 nM | > 100 µM | – | – | 57500 nM | > 100 µM | 26100 nM | 67.3 µM |
| O=c1cc(-c2cccc(C(F)(F)F)c2)[nH]c2cc3c(cc12)OCO3 | 521 nM | 50 µM | – | > 100 µM | 517 nM | 16.8 µM and 22.5 µM | 427 nM | 50 µM and 7.58 µM | 410 nM | 50 µM and > 100 µM | – | – | 276 nM | – | 1470 nM | 49.9 µM and 7 µM | 145 nM | – | 486 nM | 13 µM and > 100 µM |
| COC(=O)/C=C1/CCC2[C@@H](C(=O)CC3[C@]2(C)CCC[C@@]3(C)C(=O)OC)C1C (some centres undefined) | – | 37.7 µM | – | – | – | 39.5 µM | – | 33.4 µM | – | 29.1 µM | – | – | – | 31.6 µM | – | 34.4 µM | – | 29.5 µM | – | 27 µM |
| CCOC(C)C(/C=N/NC(N)=S)=NNC(N)=S (centres undefined) | – | > 100 µM | – | – | – | > 100 µM | – | > 100 µM | – | – | – | – | – | > 100 µM | – | 85.2 µM | – | > 100 µM | – | > 100 µM |
| COc1cc(/C=C2\[C@H]3c4c(c(OC)c(C)c(OC)c4OC)C[C@@H](C(=O)N2Cc2ccccc2)N3C(=O)OCC(C)C)c(OC)c(C)c1OC | – | > 100 µM | – | – | – | > 100 µM | – | > 100 µM | – | > 100 µM | – | > 100 µM | – | > 100 µM | – | > 100 µM | – | > 100 µM | – | > 100 µM |
| C/C(=C\C(C)COCc1ccccc1)[C@H](COCc1ccccc1)OCc1ccccc1 (some centres undefined) | – | > 100 µM | – | – | – | > 100 µM | – | > 100 µM | – | > 100 µM | – | > 100 µM | – | > 100 µM | – | > 100 µM | – | > 100 µM | – | > 100 µM |
| O=S(=O)(/C=C/c1ccc(Cl)cc1Cl)Cc1ccccc1CS(=O)(=O)/C=C/c1ccc(Cl)cc1Cl | – | > 100 µM | – | – | – | > 100 µM | – | > 100 µM | – | > 100 µM | – | > 100 µM | – | > 100 µM | – | > 100 µM | – | > 100 µM | – | > 100 µM |
